Test: Phosphodiesterase assay using fluorescence polarization with various metallic ion salts
Type: binding
Conditions: FIG. 1B, 50 nM TAMRA-cGMP with PDE, 10 mM metal salt in 100 mM NaAc/HAc buffer pH 5.2 with 10 mM ZnSO4
Method: After one hour of incubation, the fluorescence polarization was measured using Analyst reader (Molecular Devices).

SMILES	fluorescence signal, indicative of binding to the PDE product
[Cl][Ga]([Cl])[Cl] [GaCl3]	able to show fluorescence signal
[Cl-].[Cl-].[Cl-].[In+3] [InCl3, indium chloride]	able to show fluorescence signal

Source: patent publication US7901901B2, “Assays for measuring phosphate modification enzyme activity” (Roche Palo Alto LLC, priority 2006, dated 2011)
